# Reference: patent publication US9260429B2, “Pyrido[3,4-B]indoles and methods of use” (Medivation Technologies, Inc., priority 2008, dated 2016)
# Read-outs that look alike come from different tables or passages of the source.
# What was measured:
# [1] = biological target: T1, human recombinant histamine H2 receptor (Homo sapiens, UniProt P25021); experiment: Histamine H2 radioligand binding ([125I]Aminopotentidine)
# T1 construct: expressed in transfected cells; host or cells: CHO-K1 cells
# In short: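 Membranes of CHO-K1 cells expressing human H2 receptor incubated with 0.1 nM [125I]aminopotentidine, 120 min, 25 °C, 50 mM phosphate pH 7.4; nonspecific binding defined with 3 μM tiotidine.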
# [2] = biological target: T2, human recombinant adrenergic α2A receptor (Homo sapiens, UniProt P08913); experiment: Adrenergic α2A radioligand binding ([3H]MK-912)
# T2 construct: expressed in transfected cells; host or cells: insect Sf9 cells
# T2 sequence (P08913 1-465): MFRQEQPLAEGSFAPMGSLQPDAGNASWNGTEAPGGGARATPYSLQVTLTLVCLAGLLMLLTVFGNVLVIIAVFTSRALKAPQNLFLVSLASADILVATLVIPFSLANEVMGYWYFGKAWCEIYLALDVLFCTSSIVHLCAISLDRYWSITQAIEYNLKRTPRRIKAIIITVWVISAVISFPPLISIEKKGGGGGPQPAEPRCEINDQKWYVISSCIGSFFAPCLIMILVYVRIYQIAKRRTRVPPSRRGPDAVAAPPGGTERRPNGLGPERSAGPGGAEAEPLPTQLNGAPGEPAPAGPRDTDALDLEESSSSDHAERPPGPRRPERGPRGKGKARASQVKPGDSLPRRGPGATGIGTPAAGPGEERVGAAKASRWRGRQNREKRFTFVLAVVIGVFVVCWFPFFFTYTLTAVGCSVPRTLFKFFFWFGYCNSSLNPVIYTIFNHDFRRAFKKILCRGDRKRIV
# In short: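 Human α2A receptor expressed in Sf9 cells, in Tris-HCl pH 7.4 with 12.5 mM MgCl2 and 2 mM EDTA; 1 nM [3H]MK-912, 60 min at 25 °C. Non-specific binding defined with 10 μM WB-4101; filter counting.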
# [3] = biological target: T3, human recombinant serotonin (5-Hydroxytryptamine) 5-HT2A receptor (Homo sapiens, UniProt P28223); experiment: Serotonin 5-HT2A radioligand binding ([3H]Ketanserin)
# T3 construct: expressed in transfected cells; host or cells: CHO-K1 cells
# T3 sequence (P28223 whole entry): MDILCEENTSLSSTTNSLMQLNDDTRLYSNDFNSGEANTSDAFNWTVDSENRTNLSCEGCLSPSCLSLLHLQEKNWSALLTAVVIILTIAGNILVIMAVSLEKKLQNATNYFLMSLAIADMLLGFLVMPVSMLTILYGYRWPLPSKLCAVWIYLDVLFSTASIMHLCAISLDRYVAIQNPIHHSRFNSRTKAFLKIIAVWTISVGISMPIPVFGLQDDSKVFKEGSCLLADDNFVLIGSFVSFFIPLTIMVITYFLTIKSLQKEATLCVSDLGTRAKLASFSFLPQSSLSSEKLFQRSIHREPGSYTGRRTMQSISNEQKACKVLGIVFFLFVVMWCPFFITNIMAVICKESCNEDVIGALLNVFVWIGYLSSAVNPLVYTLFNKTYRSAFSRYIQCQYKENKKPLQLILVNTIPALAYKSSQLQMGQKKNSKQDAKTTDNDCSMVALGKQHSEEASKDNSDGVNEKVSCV
# In short: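 Membranes from CHO-K1 cells expressing the receptor, in 50 mM Tris-HCl pH 7.4, incubated 60 min at 25° C with 0.5 nM [3H]Ketanserin; 1 μM Mianserin defines non-specific binding. Filtration and counting; values are % inhibition of specific binding at 1 μM or lower, 1% DMSO.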
# [4] = biological target: T4, human recombinant serotonin (5-Hydroxytryptamine) 5-HT6 receptor (Homo sapiens, UniProt P50406); experiment: Serotonin 5-HT6 radioligand binding ([3H]LSD)
# T4 construct: expressed in transfected cells; host or cells: human HeLa cells
# T4 sequence (P50406 whole entry): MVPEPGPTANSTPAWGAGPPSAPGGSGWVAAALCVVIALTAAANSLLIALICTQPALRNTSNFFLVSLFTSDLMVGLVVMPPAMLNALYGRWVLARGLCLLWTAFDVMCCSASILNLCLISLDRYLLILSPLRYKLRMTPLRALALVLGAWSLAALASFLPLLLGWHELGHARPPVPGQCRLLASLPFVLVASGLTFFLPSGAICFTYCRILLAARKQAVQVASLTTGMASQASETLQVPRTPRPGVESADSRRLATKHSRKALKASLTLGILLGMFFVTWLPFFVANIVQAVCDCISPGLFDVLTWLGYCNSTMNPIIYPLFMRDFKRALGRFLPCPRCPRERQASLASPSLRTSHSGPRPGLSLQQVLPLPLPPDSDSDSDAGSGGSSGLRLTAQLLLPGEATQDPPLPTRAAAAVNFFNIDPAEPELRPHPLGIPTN
# In short: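 Human 5-HT6 receptor expressed in HeLa cells, in Tris-HCl pH 7.4 with 150 mM NaCl, ascorbic acid and BSA. Compounds at 1 μM or lower (1% DMSO) incubated 120 min at 37° C with 1.5 nM [3H]LSD. Non-specific binding defined with serotonin; filter counting gives % inhibition of specific binding.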
# [5] = 1 μM, inhibition of specific [125I]Aminopotentidine binding, read-out: Binding data (Percentage Inhibition) Histamine Binding (1 μM) H2
# [6] = 1 h, read-out: Percent Inhibition of ligand binding Adrenergic (1 μM ligand conc.) α2A
# [7] = 1 h, read-out: Percent Inhibition of ligand binding Serotonin (1 μM ligand concentration) 5-HT2A
# [8] = 2 h, read-out: Percent Inhibition of ligand binding Serotonin (1 μM ligand concentration) 5-HT6
# T1 sequence (P25021 whole entry): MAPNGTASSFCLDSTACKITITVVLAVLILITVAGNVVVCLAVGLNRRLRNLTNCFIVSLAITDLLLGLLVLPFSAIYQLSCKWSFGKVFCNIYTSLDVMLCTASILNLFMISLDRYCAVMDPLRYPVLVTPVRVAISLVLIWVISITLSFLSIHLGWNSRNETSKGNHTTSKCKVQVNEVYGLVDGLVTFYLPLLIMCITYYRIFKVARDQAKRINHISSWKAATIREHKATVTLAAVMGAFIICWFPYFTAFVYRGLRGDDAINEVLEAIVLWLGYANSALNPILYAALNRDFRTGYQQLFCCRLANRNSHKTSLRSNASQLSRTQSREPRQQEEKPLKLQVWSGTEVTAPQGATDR
SMILES,"inhibition at 1 µM [1, 5] [%]","inhibition at 1 µM [2, 6] [%]","inhibition at 1 µM [3, 7] [%]","inhibition at 1 µM [4, 8] [%]",further results
Cc1ccc2c(c1)c1c(n2/C=C/c2ccccc2)CN(C)CC1 [Compound 92],50,96,97,96,"inhibition at 1 µM ([1]; compound concentration 1 μM, read-out: Percentage inhibition of ligand binding to H2 receptor): 50%; inhibition at 1 µM ([2]; compound concentration 1 μM, read-out: Percentage inhibition of ligand binding to Adrenergic α2A receptor): 96%; inhibition at 0.01 µM ([3]; compound concentration 10 nM, read-out: Percentage inhibition of ligand binding to 5-HT2A receptor): 13%; inhibition at 0.03 µM ([3]; compound concentration 0.03 μM, read-out: Percentage inhibition of ligand binding to 5-HT2A receptor): 37%; inhibition at 0.1 µM ([3]; compound concentration 0.1 μM, read-out: Percentage inhibition of ligand binding to 5-HT2A receptor): 65%; inhibition at 0.3 µM ([3]; compound concentration 0.3 μM, read-out: Percentage inhibition of ligand binding to 5-HT2A receptor): 83%; inhibition at 1 µM ([3]; compound concentration 1 μM, read-out: Percentage inhibition of ligand binding to 5-HT2A receptor): 97%; inhibition at 0.01 µM ([4]; compound concentration 10 nM, read-out: Percentage inhibition of ligand binding to 5-HT6 receptor): 14%; inhibition at 0.03 µM ([4]; compound concentration 0.03 μM, read-out: Percentage inhibition of ligand binding to 5-HT6 receptor): 28%; inhibition at 0.1 µM ([4]; compound concentration 0.1 μM, read-out: Percentage inhibition of ligand binding to 5-HT6 receptor): 60%; inhibition at 0.3 µM ([4]; compound concentration 0.3 μM, read-out: Percentage inhibition of ligand binding to 5-HT6 receptor): 81%; inhibition at 1 µM ([4]; compound concentration 1 μM, read-out: Percentage inhibition of ligand binding to 5-HT6 receptor): 96%"
C/C(=C\n1c2c(c3cc(Cl)ccc31)CCN(C)C2C)c1ccccc1F (centres unmarked) [Compound 168],64,74,94,71,–
"CN1CCc2c(n(CC(=O)N3CCNCC3)c3ccc(Cl)cc23)C1 [Compound 55, 2-(6-chloro-2-methyl-3,4-dihydro-1H-pyrido[3,4-b]indol-9(2H)-yl)-1-(piperazin-1-yl)ethanone]",2,10,17,0,–
"C/C(=C\n1c2c(c3cc(C)ccc31)CCN(C)C2)c1ccc(Cl)cc1 [Compound 97, 9-(2-(4-chlorophenyl)prop-1-enyl)-2,6-dimethyl-2,3,4,9-tetrahydro-1H-pyrido[3,4-b]indole]",89,91,97,72,–
"Cc1ccc2c(c1)c1c(n2CC(=O)N2CCCCC2)CN(C)CC1 [Compound 57, 2-(2,6-dimethyl-3,4-dihydro-1H-pyrido[3,4-b]indol-9(2H)-yl)-1-(piperidin-1-yl)ethanone]",10,4,28,6,–
"COC(=O)Cn1c2c(c3cc(C)ccc31)CCN(C)C2 [Compound 21, methyl 2-(1,2,3,4-tetrahydro-2,6-dimethylpyrido[3,4-b]indol-9-yl)acetate]",2,0,4,6,–
"Cc1ccc2c(c1)c1c(n2CCC(=O)N2CCCCC2)CN(C)CC1 [Compound 43, 3-(1,2,3,4-tetrahydro-2,6-dimethylpyrido[3,4-b]indol-9-yl)-1-(piperidin-1-yl)propan-1-one]",6,42,69,3,–
"CN1CCc2c(n(CCC3CCCC3)c3ccc(Cl)cc23)C1 [Compound 35, 6-chloro-9-(2-cyclopentylethyl)-2,3,4,9-tetrahydro-2-methyl-1H-pyrido[3,4-b]indole]",67,88,69,67,–
